Drawing on patent US20260184663A1, “INDENE COMPOUNDS, PHARMACEUTICAL COMPOSITIONS THEREOF, AND THEIR THERAPEUTIC APPLICATIONS” (NucMito Pharmaceuticals co. Ltd., priority 2022, published 2026), this text covers inhibition for 8 molecules.

The structures appear in SMILES notation.

Format in all cases: cell-based
The subject of one experiment is HepG2 (liver cancer). Briefly: Antiproliferative activity (CCK-8 cell viability), HepG2. As to conditions: Homo sapiens, 72 h, read-out: Antiproliferative activity in cancerous cells, HepG2 (inhibition of cell growth); for inhibition at 3.3 µM: Compound concentration: 3.3 μM; for inhibition at 10 µM: Compound concentration: 10 μM. The essentials: (§1)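 Cells were seeded at 2,000-5,000/well (HeLa in MEM, HepG2 and SW480 in DMEM, A549 in F-12K, all with 10% FBS) and treated with compound at 3.3, 10 or 30 μM for 72 h at 37° C. CCK-8 was added for 4 h, absorbance was read at 450 nm, and viability was expressed relative to DMSO-treated wells.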

A further experiment deals with SW480 (colon cancer). Kind of experiment: Antiproliferative activity (CCK-8 cell viability), SW480. The note with it: Homo sapiens, 72 h; for inhibition at 3.3 µM: Compound concentration: 3.3 μM; for inhibition at 3.3 µM / inhibition at 10 µM: read-out: Antiproliferative activity in cancerous cells, SW480 (inhibition of cell growth); for inhibition at 10 µM: Compound concentration: 10 μM. The essentials: as §1

Experiment [1] has as its system A549 (lung adenocarcinoma). Kind of experiment: Antiproliferative activity (CCK-8 cell viability), A549. The note with it: Homo sapiens, 72 h, read-out: Antiproliferative activity in cancerous cells, A549 (inhibition of cell growth); for inhibition at 3.3 µM: Compound concentration: 3.3 μM; for inhibition at 10 µM: Compound concentration: 10 μM. The procedure, abridged: as §1

The test system of experiment [2] is A431 (epidermoid carcinoma). Briefly: Antiproliferative activity (CCK-8 cell viability), A431. As to conditions: Homo sapiens, 72 h, read-out: Antiproliferative activity in cancerous cells, A431 (inhibition of cell growth); for inhibition at 3.3 µM: A-431, Compound concentration: 3.3 μM; for inhibition at 10 µM: A-431, Compound concentration: 10 μM. The procedure, abridged: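 Cell viability of compound-treated A431 cells was measured with a Cell Counting Kit-8. Each well received 10 μL of CCK-8 after 72 h of compound exposure, followed by 4 h incubation at 37° C. and a 450 nm plate-reader measurement. Percent viability was calculated relative to DMSO controls across replicates.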

The subject of experiment [3] is B16F10 (malignant melanoma). Briefly: Antiproliferative activity (CCK-8 cell viability), B16F10. As to conditions: Mus musculus, 72 h, read-out: Antiproliferative activity in cancerous cells, B16F10 (inhibition of cell growth); for inhibition at 3.3 µM: B16-F10, Compound concentration: 3.3 μM; for inhibition at 10 µM: B16-F10, Compound concentration: 10 μM. The essentials:
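Attached B16F10 cells in 96-well plates were incubated with compound at 37° C for 72 h, followed by 10 μL CCK-8 reagent per well and a further 4 h incubation. A multi-well plate reader measured absorbance at 450 nm. Percent viability across replicates was calculated against DMSO vehicle-treated cells.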

The test system of experiment [4] is MDA-MB-231 (breast cancer). Briefly: Antiproliferative activity (CCK-8 cell viability), MDA-MB-231. As to conditions: Homo sapiens, 72 h, read-out: Antiproliferative activity in cancerous cells, MDA-MB-231 (inhibition of cell growth); for inhibition at 3.3 µM: Compound concentration: 3.3 μM; for inhibition at 10 µM: Compound concentration: 10 μM. The procedure, abridged: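 In this CCK-8 viability assay, MDA-MB-231 cells maintained in Dulbecco's modified Eagle's medium containing 10% fetal bovine serum were placed in 96-well plates (2,000-5,000 cells/well) and treated with compound for 72 h at 37° C. A 4 h incubation with 10 μL CCK-8 followed, plates were read at 450 nm, and viability was expressed against DMSO vehicle wells across replicates.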

A further experiment concerns HeLa (cervical cancer). Kind of experiment: Antiproliferative activity (CCK-8 cell viability), HeLa. The note with it: Homo sapiens, 72 h, read-out: Antiproliferative activity in cancerous cells, HELA (inhibition of cell growth); for inhibition at 3.3 µM: Compound concentration: 3.3 μM; for inhibition at 10 µM: Compound concentration: 10 μM. The essentials:
as §1

Take `COc1ccc2c(c1)C(CC(=O)O)=C(C)/C2=C/c1ccc(Oc2ccc(F)c(F)c2)cc1` [C75, (Z)-2-(1-(4-(3,4-Difluorophenoxy)benzylidene)-5-methoxy-2-methyl-1H-inden-3-yl)acetic acid]: the inhibition at 3.3 µM in the experiment on HepG2 (liver cancer) is less than 30%; in the experiment with SW480 (colon cancer), less than 30%; in experiment [1], 30 to 50%; in experiment [2] it was not below 50%; in experiment [3], not below 50%; in experiment [4] it was not below 50%. Further, in the experiment with HeLa (cervical cancer), the inhibition at 3.3 µM is not below 50%. Besides, the inhibition at 10 µM was not below 50% with HepG2 (liver cancer); 30 to 50% in the experiment with SW480 (colon cancer); not below 50% in experiment [1]; not below 50% in experiment [2]; not below 50% in experiment [3]; not below 50% in experiment [4]. In addition, in the experiment on HeLa (cervical cancer), the inhibition at 10 µM was not below 50%.

Take `CC1=C(CC(=O)O)c2cc(Cl)ccc2/C1=C\c1ccc(Oc2ccc(F)c(F)c2)cc1` [C76, (Z)-2-(5-Chloro-1-(4-(3,4-difluorophenoxy)benzylidene)-2-methyl-1H-inden-3-yl)acetic acid]: the inhibition at 3.3 µM in the experiment on HepG2 (liver cancer) is less than 30%; in the experiment on SW480 (colon cancer) it was less than 30%; in experiment [1], 30 to 50%; in experiment [2] it was not below 50%; in experiment [3], 30 to 50%; in experiment [4], less than 30%. The inhibition at 3.3 µM in the experiment with HeLa (cervical cancer) lay within 30 to 50%. Besides, the inhibition at 10 µM (in the experiment on HepG2 (liver cancer); with SW480 (colon cancer); in experiment [1]; in experiment [2]; in experiment [3]; in experiment [4]) was not below 50% in each case. Moreover, the inhibition at 10 µM in the experiment on HeLa (cervical cancer) was not below 50%.

Take `CC1=C(CC(=O)O)c2cc(Br)ccc2/C1=C\c1ccc(Oc2ccc(Cl)cc2)cc1` [C77, (Z)-2-(5-Bromo-1-(4-(4-chlorophenoxy)benzylidene)-2-methyl-1H-inden-3-yl)acetic acid]: the inhibition at 3.3 µM in the experiment on HepG2 (liver cancer) is 30 to 50%; in the experiment with SW480 (colon cancer) it was less than 30%; in experiment [1], less than 30%; in experiment [2], less than 30%; in experiment [3], not below 50%; in experiment [4], not below 50%. Besides, the inhibition at 3.3 µM in the experiment with HeLa (cervical cancer) is not below 50%. Further, the inhibition at 10 µM is not below 50% in the experiment on HepG2 (liver cancer); 30 to 50% in the experiment on SW480 (colon cancer); not below 50% in experiment [1]; less than 30% in experiment [2]; not below 50% in experiment [3]; not below 50% in experiment [4]. The inhibition at 10 µM in the experiment with HeLa (cervical cancer) was not below 50%.

Take `CC1=C(CC(=O)O)c2cc(F)ccc2/C1=C\c1ccc(Oc2ccc(Cl)cc2)cc1F` [C78, (Z)-2-(1-(4-(4-Chlorophenoxy)-2-fluorobenzylidene)-5-fluoro-2-methyl-1H-inden-3-yl)acetic acid]: the inhibition at 3.3 µM with HepG2 (liver cancer) is less than 30%; with SW480 (colon cancer), less than 30%; in experiment [1], not below 50%; in experiment [2], less than 30%; in experiment [3], less than 30%; in experiment [4], not below 50%. The inhibition at 3.3 µM in the experiment on HeLa (cervical cancer) is less than 30%. The inhibition at 10 µM with HepG2 (liver cancer) was not below 50%; in the experiment with SW480 (colon cancer), 30 to 50%; in experiment [1] it was not below 50%; in experiment [2] it was not below 50%; in experiment [3], not below 50%; in experiment [4], not below 50%. For the same molecule, the inhibition at 10 µM with HeLa (cervical cancer) was not below 50%.

In the case of `CC1=C(CC(=O)O)c2cc(F)ccc2/C1=C\c1ccc(Oc2ccc(Cl)cc2)cc1Oc1ccc(Cl)cc1` [C79, (Z)-2-(1-(2,4-Bis(4-chlorophenoxy)benzylidene)-5-fluoro-2-methyl-1H-inden-3-yl)acetic acid], the inhibition at 3.3 µM (in the experiment on HepG2 (liver cancer); in the experiment with SW480 (colon cancer); in experiment [1]; in experiment [2]; in experiment [3]; in experiment [4]) was not below 50% in each case. In addition, the inhibition at 3.3 µM in the experiment on HeLa (cervical cancer) was not below 50%. Besides, the inhibition at 10 µM (in the experiment on HepG2 (liver cancer); in the experiment on SW480 (colon cancer); in experiment [1]; in experiment [2]; in experiment [3]; in experiment [4]) was not below 50% in each case. Further, the inhibition at 10 µM with HeLa (cervical cancer) was not below 50%.

With `CC1=C(CC(=O)O)c2cc(F)ccc2/C1=C\c1ccc(Oc2ccc(Cl)cc2)cc1O` [C80, (Z)-2-(1-(4-(4-Chlorophenoxy)-2-hydroxybenzylidene)-5-fluoro-2-methyl-1H-inden-3-yl)acetic acid], the inhibition at 3.3 µM in the experiment with HepG2 (liver cancer) is less than 30%; in the experiment with SW480 (colon cancer), less than 30%; in experiment [1] it was 30 to 50%; in experiment [2] it was 30 to 50%; in experiment [3], 30 to 50%; in experiment [4], not below 50%. The inhibition at 3.3 µM in the experiment on HeLa (cervical cancer) is less than 30%. In addition, the inhibition at 10 µM (in the experiment on HepG2 (liver cancer); with SW480 (colon cancer); in experiment [1]; in experiment [2]; in experiment [3]; in experiment [4]) was not below 50% each time. Besides, the inhibition at 10 µM in the experiment on HeLa (cervical cancer) is not below 50%.

Turning to `CC1=C(CC(=O)O)c2cc(F)ccc2/C1=C\c1ccc(Oc2ccc(O)c(Cl)c2)cc1` [C81, (Z)-2-(1-(4-(3-Chloro-4-hydroxyphenoxy)benzylidene)-5-fluoro-2-methyl-1H-inden-3-yl)acetic acid], the inhibition at 3.3 µM in the experiment on HepG2 (liver cancer) is less than 30%; in the experiment with SW480 (colon cancer), less than 30%; in experiment [1] it was 30 to 50%; in experiment [2], 30 to 50%; in experiment [3], less than 30%; in experiment [4], 30 to 50%. The inhibition at 3.3 µM in the experiment with HeLa (cervical cancer) lay within 30 to 50%. The inhibition at 10 µM with HepG2 (liver cancer) is not below 50%; with SW480 (colon cancer), less than 30%; in experiment [1] it was not below 50%; in experiment [2] it was not below 50%; in experiment [3], not below 50%; in experiment [4] it was not below 50%. Besides, the inhibition at 10 µM with HeLa (cervical cancer) is not below 50%.

In the case of `COc1ccc(Oc2ccc(/C=C3/C(C)=C(CC(=O)O)c4cc(Cl)ccc43)cc2)cc1` [C82, (Z)-2-(5-Chloro-1-(4-(4-methoxyphenoxy)benzylidene)-2-methyl-1H-inden-3-yl)acetic acid], the inhibition at 3.3 µM in the experiment with HepG2 (liver cancer) was less than 30%; with SW480 (colon cancer), less than 30%; in experiment [1], 30 to 50%; in experiment [2], not below 50%; in experiment [3], not below 50%; in experiment [4], not below 50%. Further, in the experiment on HeLa (cervical cancer), the inhibition at 3.3 µM is less than 30%. Further, the inhibition at 10 µM was not below 50% in the experiment with HepG2 (liver cancer); less than 30% in the experiment on SW480 (colon cancer); not below 50% in experiment [1]; not below 50% in experiment [2]; not below 50% in experiment [3]; not below 50% in experiment [4]. Further, in the experiment on HeLa (cervical cancer), the inhibition at 10 µM was not below 50%. Besides, in the experiment on SW480 (colon cancer) (Compound concentration: 30 μM, read-out: Antiproliferative activity in cancerous cells, SW480), the inhibition at 30 µM fell in the range of 30 to 50%.
